According to a melting point compilation (Tetko et al.; mined from patent text by program, amines drawn as free bases though some values may be those of a salt):

| Structure (SMILES) | melting point [°C] |
| --- | --- |
| CS(=O)(=O)Nc1cccc(Nc2nc(NCc3ccccc3O)c3nc[nH]c3n2)c1 | 168 to 171 |
| C[C@H](O)CNc1nc(Oc2ccc(F)cc2F)cc2[nH]nc(-c3ccccc3Cl)c12 | 171 to 172 |
| N#Cc1ccc(-c2ccc(O)cc2)cc1F | 67 to 68 |
| CNC(=O)c1cncc(NC(=O)N2CCC3(CCc4ccc(F)cc4O3)CC2)c1 | 231 to 233 |
| Cc1ccc2c(c1)c1cc(C(=O)N3CCOCC3)sc1n2C | 158 to 160 |
| CC(C)(CO)Nc1nc(Nc2cccc(NS(C)(=O)=O)c2)nc2[nH]cnc12 | 215 to 218 |
| CC1(C)Oc2ccc(C#N)cc2C(Oc2ccncn2)C1(C)O (configuration not stated) | 103 to 105 |
| O=C(/C=C/c1ccc(Br)cc1)c1cnc2sccn12 | 213 to 215 |
| CCc1ncc(CCCOc2c(C)cc(-c3noc(C(F)F)n3)cc2C)s1 | 68 to 70 |
| O=C(Nc1ccc(OCCN2CCOCC2)c2ccccc12)OCC(Cl)(Cl)Cl | 124 to 125 |
| CC(C)(C)c1cc(OCCCCCc2nnn[nH]2)cc(C(C)(C)C)c1O | 140 to 141 |
| C[C@@H]1S[C@@H](C(=O)N(C)c2ccc(CN3CCOCC3)cc2)Cc2cc3c(cc2C1=O)OCO3 | 162 to 165 |
| COc1nc2cc(Cl)c(Cl)cc2nc1NS(=O)(=O)c1cccc(Cl)c1Cl | 283 to 285 |
| CNC(=O)Cc1ncc2c(n1)-c1ccc(Cl)cc1C(c1ccccc1F)=NC2 | 175 to 177 |
| NC(=O)CC(CC(N)=O)c1cccc(Cl)c1Cl | 194 to 196 |
| O=c1c(Nc2ccc(Cl)cc2)nc2ccccc2n1-c1ccc(Cl)cc1 | 258 to 260 |
| Oc1cc2c(cc1CCCCSc1cccnc1)OCC2 | 130 to 131 |
| O=C1Nc2ccccc2N2CCN(CCc3ccccn3)CC12 (configuration not stated) | 167 to 169 |
| O=C(O)Cc1c(C(=O)c2ccc(Br)cc2)[nH]c2cc(Cl)ccc12 | 199 to 201 |
| Cc1cccc(Nc2nc(N(C)C)ncc2S(=O)(=O)NC(=O)NC(C)C)c1 | 178 to 179 |
| O=C(OCc1ccccc1)C1NN=C(c2ccc(C(F)(F)F)cc2)S1 (configuration not stated) | 99 to 100 |
| CCC1(CSc2ccccc2C(=O)c2ccccc2)COC(=O)N1 (racemic) | 103 to 104 |
| CN1CCC23c4c5ccc(O)c4OC2C(=NO)CCC3(O)C1C5 (configuration not stated) | 270 to 271 |
| Cn1c(COc2ccc(CC3SC(=O)NC3=O)cc2)cc2ccccc21 (configuration not stated) | 174 to 176 |
| CC(C(O)c1ccc2c(c1)CCCS2)N1CCN(C(=O)C=Cc2ccccc2Cl)CC1 (configuration not stated) | 206 to 209 |

| Structure (SMILES) | melting point [°C] |
| --- | --- |
| COc1ccnc(CCc2nc3cc(-c4ccc(S(=O)(=O)NCCO)cc4)cnc3[nH]2)c1 | 218 to 220 |
| COc1ccc(N(C(=O)c2c3ccccc3nc3ccccc23)S(=O)(=O)c2ccc(CCC(=O)ON3C(=O)CCC3=O)cc2)c(OC)c1 | 105 |
| Cc1cc(C)c2c(c1C)OCC2c1ccc(C2OCCO2)cc1 (configuration not stated) | 107 to 108 |
| CN(C)c1nc(N)c(-c2cc(Cl)cc(Cl)c2Cl)c(C(F)(F)F)n1 | 124 to 126 |
| CC(C)(C)OC(=O)NC(Cc1ccc(CO)cc1)c1cccnc1 (configuration not stated) | 130 |
| COC(=O)c1ccc(NC(=O)c2c(-c3ccccc3)c(-c3ccc(F)cc3)n(CC[C@@H]3C[C@H](CC(=O)OC(C)(C)C)OC(C)(C)O3)c2C(C)C)cc1 | 159 to 160 |
| Oc1c(-c2ccccc2)sc2c(C(O)c3ccccc3)nccc12 (configuration not stated) | 214 to 215 |
| COc1cc2c(=O)n(CCN(C)C)c3c(cnc4cccc(N)c43)c2cc1OC | 239 to 241 |
| COc1ccc(-c2cc3cc(F)c(F)cc3[nH]2)cc1NC(=S)N[C@@H](COC(C)(C)C)C(=O)OC(C)(C)C | 111 to 114 |
| OC(CNCCc1cc(Br)sc1Br)c1ccccc1 (configuration not stated) | 94 |
| CC(C)=CCC/C(C)=C/COc1c(I)c(C)c(I)c(C)c1I | 65 to 66 |
| Fc1cccc(F)c1Cn1nnc2c(Cl)nccc21 | 133 to 139 |
| C=Cc1ncn2c1[C@@H]1CCCN1C(=O)c1c(Cl)cccc1-2 | 213 to 215 |
| N#Cc1c(Cl)c[nH]c1-c1ccc(Cl)cc1 | 251 to 254 |
| CCOC(=O)Cc1ccc(Cc2n[nH]c3c2c(=O)n(-c2ccccc2)c2ncccc32)cc1 | 263 to 264 |
| COc1cc2c(cc1OC)Sc1ccc(Cl)cc1C(Cl)C2 (configuration not stated) | 139 to 141 |
| C[C@@H](NC(=O)[C@H](Cc1ccc(O)cc1)NC(=O)OC(C)(C)C)C(=O)NCC(=O)Oc1c(Cl)c(Cl)c(Cl)c(Cl)c1Cl | 222 |
| NC(=O)N1CCC(c2nn(-c3ccc(F)cc3)c3ccccc23)CC1 | 145 to 147 |
| CCOC(=O)C1Cc2sc(N)c(C(=O)c3ccccc3Cl)c2C1 (configuration not stated) | 121 to 122 |
| Cc1ccccc1-c1c2c(cc3ccc4c(c13)OCO4)C(=O)NC2 | 252 to 255 |
| Cc1ccc2c(=O)nc(-c3cccc(CCC(=O)OC(C)(C)C)n3)sc2c1 | 135 |
| C[C@]12C[C@H](c3ccc(OCCCCCl)cc3)C3=C4CCC(=O)C=C4CC[C@H]3[C@@H]1CCC2=O | 194 |
| CC(=O)COc1cc2c(c(Cl)c1Cl)C(=O)C(C)(c1ccccc1)C2 (configuration not stated) | 144 |
| COC12CCCCC1CC(c1ccccc1)=NN2S(=O)(=O)c1ccc(C)cc1 (configuration not stated) | 112 to 114 |

Second part, the compound after the results:

| melting point [°C] | Structure (SMILES) |
| --- | --- |
| 184 to 185 | CN(C)NC(=O)C1(N2C(=O)c3cccc(Cl)c3C2=O)CCCCC1 |
| 167 to 168 | Cc1ccc(C(NC(N)=S)c2ccccc2)cc1 (configuration not stated) |
| 229 to 230 | COC(=O)C1Cc2c([nH]c3ccccc23)C(C)N1C(=S)SC (configuration not stated) |
| 192 to 193 | O=C(CCCOc1cccc(CN2CCCCC2)c1)Nc1nc(CCc2ccccc2)n[nH]1 |
| 104 | CCOC(=O)NN=COC(CC)NC (configuration not stated) |
| 55 to 57 | CCCC(=O)NCCc1cccc2ccc(SC)cc12 |
| 154 to 158 | CCCCOC(=O)C(CC(=O)O)NCCCN(C)C (configuration not stated) |
| 170 | CCOC(=O)C1Cc2c([nH]c3ccccc23)C(c2ccc(N(C)C)cc2)N1 (configuration not stated) |
| 97 to 99 | CCOC(=O)[C@H](NS(=O)(=O)c1ccc(C)cc1)[C@@H]1CO[C@@H](c2ccccc2)C1 |
| 174 | CCC1(CC)NS(=O)(=O)c2ccccc21 |
| 154 to 155 | CC(C)CCCC(C)C1CCC2C3=C(CCC21C)C1(C)CCC(O)C(C)(C)C1CC3 (configuration not stated) |
| 213 to 215 | COc1cc(OC)nc(C2(OC(C)=O)OC(=O)c3c(Cl)cccc32)n1 (configuration not stated) |
| 256 to 259 | COc1ccc(-c2nnc3c4ccccc4c(Nc4cccc(-c5nnn(C)n5)c4)nn23)cc1 |
| 223 to 225 | CCC(C(=O)C(C)C(O)C(C)CCc1c(N)cc(C)c(O)c1C(=O)O)C1OC(CC)(C2CCC(O)(CC)C(C)O2)CC1C (configuration not stated) |
| 77 to 79 | CCC(COc1cccc(COc2cccc3cccnc23)c1)OC(C)=O (configuration not stated) |
| 31 to 33 | CCCCCCC1(CCCCCC)c2ccccc2-c2ccccc21 |
| 101 | CCCCCCCCCc1cc(=O)c2c(O)cc(O)cc2o1 |
| 121 to 123 | CCOc1ccc2c(c1)C(=O)Cc1c(Cl)cccc1S2 |
| 98 to 101 | O=C(NCc1ccccc1)c1cc2c(-c3ccccc3)n[nH]c2s1 |
| 70 | C=C(C)C(=O)Oc1cccc(-c2cccc(OC(=O)C(=C)C)c2)c1 |
| 219 to 222 | CCN1C(=O)Nc2ccc(Cl)cc2C1(C#CC1(C)CC1)C(F)(F)F (configuration not stated) |
| 65 to 71 | O=C(NCCOc1cccnn1)C1Cc2ccccc2N1S(=O)(=O)c1ccc(-c2cccc(C(F)(F)F)c2)cc1 (configuration not stated) |
| 116 to 117 | CN1C(=O)Cc2ccc(Cl)cc21 |
| 56 to 58 | Oc1ccc2c(c1)CC(CCc1ccccc1)O2 (configuration not stated) |

| melting point [°C] | Structure (SMILES) |
| --- | --- |
| 175 to 176 | Cc1nc(N2CCC(Cc3ccc(C(F)(F)F)cc3)C2=O)sc1C(=O)NCc1ccc(F)cc1 (configuration not stated) |
| 105 | CC(C)Cc1ccc2c(c1)C(CO)c1cc(CC(C)C)ccc1-2 |
| 269 to 271 | O=C1NCc2cccnc2N1c1ccccc1 |
| 80 to 81 | Cc1oc(-c2ccco2)nc1COc1ccc(COc2nn(Cc3ccc(OCc4nc(-c5ccco5)oc4C)cc3)cc2CO)cc1 |
| 250 to 253 | Nc1ccn(/C=C2/CC2(CO)CO)c(=O)n1 |
| 190 to 195 | O=C(O)Cc1c(C(=O)O)c2cc(Oc3cccc(Cl)c3)ccc2n1-c1ccc(OC(F)(F)F)cc1 |
| 119 to 120 | CCOC(=O)/C=C/c1cn(Cc2ccc3cc(OCc4ccccc4)ccc3c2)cc1-c1ccccc1 |
| 187 to 189 | CC(=O)NC[C@H]1CN(c2ccc(C3C=CS(=O)(=O)CC3)cc2)C(=O)O1 (some centres not stated) |
| > 188 | O=C(O)c1cc(NCc2ccc(C(F)(F)F)cc2)ccc1O |
| 126 to 127 | CC(=O)Oc1cc(C(=O)O)cc([N+](=O)[O-])c1OC(C)=O |
| 62 to 64 | OC(CCCl)COc1ccc(Cl)cc1 (configuration not stated) |
| 163 to 165 | CCOC(=O)c1ccc(NC(=O)CCc2ccc(Cl)cc2)cc1 |
| 159 to 162 | O=C(Nc1cnn2ccccc12)C1CC1 |
| 167 to 170 | CC(C)c1nc(CCOC(N)=O)n(Cc2ccccc2N)c1Sc1cc(Cl)cc(Cl)c1 |
| 85 to 87 | O=c1cc(Cl)c2cc(OC(F)(F)F)ccc2o1 |
| 124 to 127 | O=C1C(CCO)Oc2ccccc2N1Cc1ccc([N+](=O)[O-])cc1 (configuration not stated) |
| 111 to 113 | CCOCCOc1c(C)cc(Oc2ccc3c(c2)C=C(C(=O)Nc2ccc(CN(C)C4CCOCC4)cc2)CCS3(=O)=O)cc1C |
| 299 | Cc1ccc(-n2nc3c4cc(Cc5ccccc5)ccc4[nH]c(=O)n3c2=O)cc1 |
| 147 | Cc1ccc(S(=O)(=O)NN=C(Cc2ccc(OCc3ccccc3)cc2)c2cc(OCc3ccccc3)cc(OCc3ccccc3)c2)cc1 |
| 138 to 142 | Cc1nc(NCC(C)C)sc1C(=O)c1ccc(Cl)c([N+](=O)[O-])c1 |
| 104 to 105 | COCC1CN(c2ccc(C3CCC(OC(=O)c4ccccc4)CC3)cc2)C(=O)O1 (racemic) |
| 171 to 175 | CCOC(=O)C1CCCN(C(=O)CCn2cnc3c(=O)[nH]cnc32)C1 (configuration not stated) |
| 193 to 195 | COc1cc(CC2(C#N)c3cc(Cl)c(Cl)cc3C=CN2C(=O)c2ccccc2)cc(OC)c1OC (configuration not stated) |
| 146 to 147 | CNC(=C[N+](=O)[O-])NCCSCC1(OC)C=CC=NC1 (configuration not stated) |
